Measured values published in the NIST ThermoML archive (doi:10.1021/je0341413).

Test: xn = mol fraction of the nth substance listed
Conditions: 101.3 kPa, Liquid

CCOC(=O)OCC [diethyl carbonate] + CCCCO
Conditions	viscosity [mPa·s]
293.15 K, x1 = 0.051	2.5
293.15 K, x1 = 0.1027	2.148
293.15 K, x1 = 0.2008	1.672
293.15 K, x1 = 0.2978	1.376
293.15 K, x1 = 0.4026	1.173
293.15 K, x1 = 0.5079	1.031
293.15 K, x1 = 0.6014	0.944
293.15 K, x1 = 0.7033	0.878
293.15 K, x1 = 0.7986	0.841
293.15 K, x1 = 0.9031	0.814
293.15 K, x1 = 0.951	0.81
293.15 K, x1 = 1	0.795
298.15 K, x1 = 0.0519	2.203
298.15 K, x1 = 0.0993	1.899
298.15 K, x1 = 0.1996	1.445
298.15 K, x1 = 0.2923	1.195
298.15 K, x1 = 0.3989	1.03
298.15 K, x1 = 0.5017	0.939
298.15 K, x1 = 0.6016	0.874
298.15 K, x1 = 0.7043	0.815
298.15 K, x1 = 0.8002	0.766
298.15 K, x1 = 0.8968	0.736
298.15 K, x1 = 0.9471	0.734
298.15 K, x1 = 1	0.749
303.15 K, x1 = 0.0508	1.905
303.15 K, x1 = 0.1004	1.642
303.15 K, x1 = 0.2016	1.3
303.15 K, x1 = 0.3	1.101
303.15 K, x1 = 0.3917	0.977
303.15 K, x1 = 0.5032	0.87
303.15 K, x1 = 0.597	0.794
303.15 K, x1 = 0.7099	0.729
303.15 K, x1 = 0.8216	0.699
303.15 K, x1 = 0.9035	0.697
303.15 K, x1 = 0.9488	0.697
303.15 K, x1 = 1	0.699
313.15 K, x1 = 0.0506	1.535
313.15 K, x1 = 0.1007	1.356
313.15 K, x1 = 0.2005	1.09
313.15 K, x1 = 0.2975	0.926
313.15 K, x1 = 0.4122	0.802
313.15 K, x1 = 0.5035	0.741
313.15 K, x1 = 0.6084	0.691
313.15 K, x1 = 0.7044	0.656
313.15 K, x1 = 0.8055	0.634
313.15 K, x1 = 0.9016	0.618
313.15 K, x1 = 0.9486	0.617
313.15 K, x1 = 1	0.623

CCCCO [butan-1-ol] + CCOC(=O)OCC
x2 = 0
Conditions	viscosity [mPa·s]
293.15 K	2.941
298.15 K	2.62
303.15 K	2.255
313.15 K	1.754

CC(C)O [propan-2-ol] + CCOC(=O)OCC
x2 = 0
Conditions	viscosity [mPa·s]
293.15 K	2.386
298.15 K	2.098
303.15 K	1.763
313.15 K	1.325

CCOC(=O)OCC [diethyl carbonate] + CCC(C)O
Conditions	viscosity [mPa·s]
293.15 K, x1 = 0.0512	2.892
293.15 K, x1 = 0.1031	2.341
293.15 K, x1 = 0.2021	1.652
293.15 K, x1 = 0.2997	1.289
293.15 K, x1 = 0.4023	1.092
293.15 K, x1 = 0.5115	0.979
293.15 K, x1 = 0.607	0.91
293.15 K, x1 = 0.707	0.861
293.15 K, x1 = 0.8038	0.825
293.15 K, x1 = 0.9089	0.804
293.15 K, x1 = 0.9524	0.803
293.15 K, x1 = 1	0.795
298.15 K, x1 = 0.0509	2.485
298.15 K, x1 = 0.101	2.001
298.15 K, x1 = 0.202	1.379
298.15 K, x1 = 0.3002	1.071
298.15 K, x1 = 0.404	0.937
298.15 K, x1 = 0.5003	0.888
298.15 K, x1 = 0.6008	0.858
298.15 K, x1 = 0.6963	0.813
298.15 K, x1 = 0.7987	0.752
298.15 K, x1 = 0.8999	0.709
298.15 K, x1 = 0.9466	0.712
298.15 K, x1 = 1	0.749
303.15 K, x1 = 0.0517	2.023
303.15 K, x1 = 0.1132	1.623
303.15 K, x1 = 0.2267	1.211
303.15 K, x1 = 0.3316	1.021
303.15 K, x1 = 0.4467	0.89
303.15 K, x1 = 0.5422	0.809
303.15 K, x1 = 0.6426	0.739
303.15 K, x1 = 0.7416	0.698
303.15 K, x1 = 0.8281	0.684
303.15 K, x1 = 0.9196	0.691
303.15 K, x1 = 0.9494	0.697
303.15 K, x1 = 1	0.699
313.15 K, x1 = 0.0511	1.503
313.15 K, x1 = 0.1026	1.28
313.15 K, x1 = 0.1988	0.996
313.15 K, x1 = 0.2955	0.83
313.15 K, x1 = 0.4041	0.738
313.15 K, x1 = 0.5084	0.69
313.15 K, x1 = 0.5983	0.662
313.15 K, x1 = 0.6988	0.636
313.15 K, x1 = 0.8034	0.61
313.15 K, x1 = 0.9022	0.601
313.15 K, x1 = 0.9523	0.606
313.15 K, x1 = 1	0.623

CCOC(=O)OCC [diethyl carbonate] + CCO
Conditions	viscosity [mPa·s]
293.15 K, x1 = 0.0503	1.098
293.15 K, x1 = 0.0997	1.021
293.15 K, x1 = 0.198	0.906
293.15 K, x1 = 0.3006	0.835
293.15 K, x1 = 0.4031	0.792
293.15 K, x1 = 0.5031	0.77
293.15 K, x1 = 0.6063	0.761
293.15 K, x1 = 0.6898	0.755
293.15 K, x1 = 0.8066	0.759
293.15 K, x1 = 0.895	0.77
293.15 K, x1 = 0.945	0.776
293.15 K, x1 = 1	0.795
298.15 K, x1 = 0.0496	1.05
298.15 K, x1 = 0.0973	0.943
298.15 K, x1 = 0.1963	0.835
298.15 K, x1 = 0.2985	0.771
298.15 K, x1 = 0.398	0.728
298.15 K, x1 = 0.5057	0.714
298.15 K, x1 = 0.6032	0.708
298.15 K, x1 = 0.7035	0.703
298.15 K, x1 = 0.7999	0.702
298.15 K, x1 = 0.8989	0.714
298.15 K, x1 = 0.9283	0.721
298.15 K, x1 = 1	0.749
303.15 K, x1 = 0.0491	0.899
303.15 K, x1 = 0.0984	0.834
303.15 K, x1 = 0.1952	0.754
303.15 K, x1 = 0.2961	0.704
303.15 K, x1 = 0.3946	0.673
303.15 K, x1 = 0.4859	0.661
303.15 K, x1 = 0.5995	0.649
303.15 K, x1 = 0.6959	0.648
303.15 K, x1 = 0.7862	0.649
303.15 K, x1 = 0.8911	0.661
303.15 K, x1 = 0.9254	0.669
303.15 K, x1 = 1	0.699
313.15 K, x1 = 0.0499	0.777
313.15 K, x1 = 0.102	0.74
313.15 K, x1 = 0.2038	0.676
313.15 K, x1 = 0.3116	0.636
313.15 K, x1 = 0.4001	0.613
313.15 K, x1 = 0.4971	0.6
313.15 K, x1 = 0.6023	0.59
313.15 K, x1 = 0.7058	0.591
313.15 K, x1 = 0.8065	0.596
313.15 K, x1 = 0.9022	0.608
313.15 K, x1 = 0.9518	0.616
313.15 K, x1 = 1	0.623

CCO [ethanol] + CCOC(=O)OCC
x2 = 0
Conditions	viscosity [mPa·s]
293.15 K	1.194
298.15 K	1.105
303.15 K	0.972
313.15 K	0.826
